Measurements reported in US20060286139A1, “Polymeric drug release system for medical devices” (priority 2003, published 2006).

Experiment: Drug elution from dual-coated stents (17β-estradiol in PEP94 bottom layer, dexamethasone in PEP90 top layer) into aqueous release medium, HPLC analysis
Type: physicochemical
Details: for Percentage Released: bottom layer PEP94, aqueous release medium 37° C.; for Total Microgrammes Released: bottom layer PEP94, loading approx 147 μg, aqueous release medium 37° C.
Experimental: This example describes the preparation and elution of stents comprising 17β-estradiol and dexamethasone each contained within a specific ratio of PVB/PnVPA
A coating solution was prepared made up of PEP94 and 17β-estradiol in a blend of chloroform and acetone (80:20 by weight), so that in terms of total solids 25% was 17β-estradiol, 75% polymer.
A second coating solution was prepared made of PEP 90 and dexamethasone in a mixture of chloroform and acetone (80:20 by weight), so that in terms of total solids 25% was dexamethasone, 75% polymer.
The stents were weighed, spray coated in a ratio of 3:1 (estradiol: dexamethasone) with the respective formulations such that the bottom layer comprised PEP94 with 17β-estradiol and the top layer PEP90 with dexamethasone. The stents were then dried overnight at 40° C. under vacuum.
Upon weighing the average coating weight of the stents was 811 μg yielding drug loadings of approx 147 μg±17 μg for 17β-estradiol and 57 μg±16 μg for dexamethasone.
Each stent was placed on a hook and suspended in a vial containing 8 ml of an aqueous release medium with a 5 mm magnetic flea. The vials were placed on a multipoint stirrer set at 1000 rpm and incubated at 37° C. After a given time interval (ranging from 1 hour to several days), the stents were transferred to fresh aliquots of release medium and replaced on the stirrer to resume agitation. The solution containing dexamethasone/17β-estradiol was set aside for analysis.
Analysis of the samples was carried out using HPLC (Agilent 1100 series).

Percentage Released (time 1 hour): 5.1% | Percentage Released (time 7 hours): 10.5% | Percentage Released (time 24 hours): 17.1% | Total Microgrammes Released (time 1 hour): 7.5 µg | Total Microgrammes Released (time 7 hours): 15.5 µg | Total Microgrammes Released (time 24 hours): 25.1 µg
SMILES: C[C@]12CC[C@@H]3c4ccc(O)cc4CC[C@H]3[C@@H]1CC[C@@H]2O [17β-estradiol]
